# No end group written: not given here.
# Experiments:
# immobilized Aβ40 fibrils = target: T1, immobilized Aβ40 fibrils (Homo sapiens, UniProt P05067); experiment: Surface plasmon resonance binding to immobilized Aβ40 fibrils; conditions: read-out: ka
# T1 construct: made in house; host or cells: chemical solid-phase peptide synthesis (CEM Liberty synthesizer)
# Protocol: Surface Plasmon Resonance (SPR) analyses were performed at 25 °C using Biacore 3000 optical biosensors with research grade CM5 chips (Biacore, Uppsala, Sweden). […] The binding sensograms were recorded following the injection of freshly prepared peptides over the immobilized surface for 5 min at a flow rate of 30 µl/min. The dissociation profile was monitored for about 15 min, and then the surface was regenerated with two short 8 sec injections of 50 mM NaOH. Extensive validation studies were performed to ensure that Aβ fibrils immobilized on the chip retained their binding characteristics even after the regeneration procedure. Kinetic data analysis was performed using Biaevaluation software (Version 3.2) provided by Biacore Inc., Uppsala, Sweden.
# [1] = test system: amyloid plaques in APP, PS1 mouse brain sections; experiment: Labeling of amyloid plaques in brain sections with radioiodinated peptides, emulsion autoradiography; format: binding; conditions: 100 pM radioiodinated peptide, 3 hrs, unfixed 15 µm cryosections, 20-month old APP, one day of exposure
# Protocol: HPLC-purified ^125I-Aβ40, ^125I-Aβ40 H13G, ^125I-Aβ40 H13R, ^125I-Aβ40 H13,14G or buffer was incubated in vitro with unfixed cryosections (15 µm) of brain from a 20-month old APP, PS1 AD transgenic mouse using the same procedure used previously. The rodent Aβ was not evaluated because the peptide lacks a tyrosine amino acid for radioiodination. Briefly, the sections were incubated for 3 hrs with 100 pM radioiodinated peptide or alone in 250 µl of TBS (50 mM Tris HCl, 138 mM sodium chloride, pH 7.0) containing 0.1% BSA, 0.6 mg/ml magnesium chloride, 0.04 mg/ml bacitracin, 0.002 mg/ml chymostatin, and 0.004 mg/ml leupeptin. After rinsing and air drying overnight at 4°C., the sections were fixed in formalin for 5 min and then underwent immunoperoxidase histochemistry (IH) for amyloid using an anti-Aβ monoclonal mouse antibody (4G8, 1∶1000, Signet Laboratories, Dedham, MA). Next, the sections were dipped in an autoradiographic emulsion (Type NTB-3, Kodak, Rochester, NY) for direct comparison of ^125I-peptide labeling to anti-Aβ IH. The slides were dipped in emulsion, exposed for various durations, and developed according to the instructions. The sections were dehydrated with successive changes of ethanol and xylene and then coverslipped.
# T1 sequence (P05067 672-711): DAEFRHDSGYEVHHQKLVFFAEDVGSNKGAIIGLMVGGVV
Substance,kon at 75 µM (immobilized Aβ40 fibrils) [M⁻¹ s⁻¹],labeling of amyloid plaques [1]
"DAEFGHDSGFEVRHQKLVFFAEDVGSNKGAIIGLMVGGVV [Aβ40 R5G, Y10F, H13R, Aβ1-40 R5G, Y10F, H13R]",31,
"^125I-Aβ40 H13,14G: radioiodinated Aβ40 H13,14G",,labeled amyloid plaques equally well
^125I-Aβ40 H13G,,labeled amyloid plaques equally well
^125I-Aβ40 H13R,,labeled amyloid plaques equally well
^125I-Aβ40: radioiodinated Aβ40 [reference compound],,labeled amyloid plaques equally well
